The subject of this assay is CEM cells HIV-1 protection, formazan growth assay. Kind of assay: NCI AIDS Antiviral Assay. The following applies: for IC50: measured here: growth of uninfected CEM cells. The essentials:
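Human CEM cells, uninfected and HIV-1-infected, received five drug concentrations, and growth was read by soluble formazan assay. Compounds giving at least 50% protection were retested; reproducible 100% protection defined confirmed active.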

The source made the active and inactive calls.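 Rule for the calls: active = compounds giving half or more protection of infected cells from virus-caused growth loss, again on retest; inactive = the rest.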 Where a SMILES comes first, the peptide text is derived from it. [ ]: non-standard residue; d: D form. The star is where a group is joined. X4 = CC(C)(C)c1cc(OCC(=O)*)ccc1Sc1c(O)cc(-c2ccccc2)oc1=O; NMeLeu(3R-OH) = CN[C@H](C(=O)O)[C@H](O)C(C)C; NMeL = CN[C@@H](CC(C)C)C(=O)O; NMeV = CN[C@H](C(=O)O)C(C)C; dNMeS = CN[C@H](CO)C(=O)O; Abu = CC[C@H](N)C(=O)O; Boc = CC(C)(C)OC(=O)*; OBn = c1ccc(CO*)cc1

What is called EC50 is the concentration giving half of the maximal effect. Usually IC50 stands for the concentration that gives 50% inhibition. A lower IC50 goes with inhibition by little substance.

`COc1cc(/C=C2\C(=O)N(c3ccc(Cl)cc3)C(c3ccccc3)S2(=O)=O)cc(OC)c1OC` (stereo not drawn): the result was inactive.
In the case of `c1ccc2c(c1)ncn2CCn1ccnc1`, the EC50 is over 200 µM and the IC50 was over 200 µM.
As to `CC1(C)CC(N2CCN(C3CC(C)(C)NC(C)(C)C3)CC2)CC(C)(C)N1`, the EC50 is over 339 µM and the IC50 is over 339 µM.
Consider `O=C(O)CCC(NC(=O)c1ccc(Nc2nc3ccccc3nc2C(=O)O)cc1)C(=O)O` (stereo not drawn), for which the EC50 is over 200 µM and the IC50 is over 200 µM.
Consider `O=c1c2c(oc3ccccc13)-c1ccccc1OC2`, for which the EC50 was over 200 µM and the IC50 was over 200 µM.
Regarding `CSC1=N/C(=C\c2ccco2)C(=O)N1CN1CCOCC1`, the EC50 was over 200 µM and the IC50 is 39.8 µM.
With `O=C1c2n[nH]nc2C(=O)c2n[nH]nc21`, the EC50 was over 200 µM and the IC50 was over 200 µM.
On to `OCC1OC(n2cnc(C3=NCC(O)CN3)n2)C(O)C1O` (stereo not drawn), for which the outcome was inactive.
For `Nc1nc(Cl)cc(NCC2(CO)COC2)n1`, the EC50 was over 200 µM and the IC50 was over 200 µM.
Regarding `CC(C)CC(NC(=O)OC(C)(C)C)C(=O)NC(CC(=O)OCc1ccccc1)C(=O)OCc1ccccc1` (stereo not drawn) (Boc-Leu-Asp(OBn)-OBn; configuration not given here), the EC50 is over 200 µM and the IC50 came out at 33.1 µM.
With `S=c1[nH]nc(C23CC4CC(CC(C4)C2)C3)n1-c1ccc(Cl)cc1`, the EC50 is over 200 µM and the half-inhibitory concentration (IC50) came to 23.4 µM.
On the same counts, the results for `COCN1C(=N)C(C(=O)OC(C)(C)C)=C2C=C(O)C=CC21C` (stereo not drawn) are over 200 µM and 1.45 µM.
Consider `C/C(C=C(C#N)C#N)=C\c1ccc(N(C)C)cc1`, for which the EC50 is over 21.9 µM and the IC50 is over 21.9 µM.
`CC(=O)/C(=C/c1cccc(Br)c1)C(=O)c1ccccc1`: the EC50 was over 21.9 µM and the IC50 is 11.2 µM.
With `Cn1c(-c2ccc(/C=N/N=C/c3ccc(-c4c[n+]5ccccc5n4C)cc3)cc2)c[n+]2ccccc12`, the EC50 was over 200 µM and the IC50 was 170 µM.
With `CCOC(=O)c1cc2c3c(c1)C(=O)C(C)CN3CC(C)C2=O` (stereo not drawn), the result was inactive.
Turning to `O=c1ncc2[nH]c(=S)[nH]c2[nH]1`, the EC50 was over 200 µM and the IC50 was over 200 µM.
As to `COc1cc2ccc3c4ccccc4cnc3c2cc1OC`, the EC50 is over 89.1 µM and the IC50 is over 89.1 µM.
As for `CCC1=C(c2ccc(OC)cc2)CCC2(CCNC2)C1C` (stereo not drawn), the EC50 is over 513 µM and the IC50 came out at 10.5 µM.
On the same counts, the results for `C=C[C@@]1(C)CC2(C=C(CO)C(O)O2)Oc2c1c(=O)oc1cccc(C)c21` (stereo partly drawn) are over 200 µM and 3.02 µM.
On the same counts, the results for `COCc1c(CO)cnc(C)c1OC1OC(CO)C(O)C(O)C1O` (stereo not drawn) are over 724 µM and over 724 µM.
As for `O=S1(=O)CC#CC[C@@H](CO)[C@@H](CO)CC#CC1`, the result was inactive.
On to `COc1cccc2c1c1ccc3c(c1n2C)C(=O)C=CC3=O`, for which the EC50 is over 17.8 µM and the IC50 came out at 7.08 µM.
As for `O=NC1C(=O)NC(=O)NC1=O`, the EC50 was over 200 µM and the concentration for half-maximal inhibition (IC50) was over 200 µM.
For the compound `Cc1cccc2c1Oc1ccccc1C2NC(=O)CN(C)C` (stereo not drawn), the EC50 is over 437 µM and the IC50 stood at 83.2 µM.
In the case of `CN1CCC/C1=N\c1scc(-c2ccc(Br)cc2)[n+]1-c1ccccc1`, the EC50 was over 38 µM and the IC50 worked out at 5.75 µM.
Turning to `O=C(CCl)N1CCN(c2ccccc2)CC1`, the EC50 was over 1050 µM and the IC50 turned out to be 1.2 µM.
On to `O=C1N2CCN=C2c2ccccc2C1(O)c1ccccc1` (stereo not drawn), for which the EC50 was over 200 µM and the IC50 is over 200 µM.
Consider `CC(C)(C)c1ccccc1N1C(=O)c2ccc3c4c(ccc(c24)C1=O)N(c1ccccc1C(C)(C)C)C3=O`, for which the EC50 was over 200 µM and the concentration for half-maximal inhibition (IC50) was over 200 µM.
Take `CCCCCCCCCCCCCCCc1ccc(OCC(O)CO)cc1` (stereo not drawn): the EC50 was over 19.1 µM and the IC50 was over 19.1 µM.
Take `Cc1nc(Nc2ccccc2Cl)sc1C(=O)CC(=O)C(N)=O`: the EC50 was over 200 µM and the IC50 was over 200 µM.
Turning to `CC(=O)OC[C@@H](OC(C)=O)[C@@H](OC(C)=O)[C@H]1OC[C@@H]2C[C@H]([C@H]1OC(C)=O)N(Cc1ccccc1)O2`, the EC50 was 93.3 µM and the IC50 is over 200 µM.
For `COc1ccc(N2C(=O)C3c4[nH]c5ccc(OCc6ccccc6)cc5c4C4CCC(C(C)C)CC4C3C2=O)cc1` (stereo not drawn), the EC50 was over 100 µM and the IC50 is over 100 µM.
For the compound `CC1(C)Oc2ccccc2OC1O` (stereo not drawn), the EC50 was over 200 µM and the IC50 is over 200 µM.
In the case of `CCOP(=O)(OCC)/C(C#N)=C/c1ccc(-c2ccc(F)cc2F)o1`, the outcome was inactive.
Take `CC(C)(C)OC(=O)c1cccnc1/C=N/O`: the EC50 was over 589 µM and the IC50 is 186 µM.
In the same order, the values of `CCN=C(N)SCCS(=O)(=O)O` are over 200 µM and over 200 µM.
Regarding `O=C(O)C1CSC(c2cccs2)N1` (stereo not drawn), the EC50 is over 200 µM and the half-inhibitory concentration (IC50) was over 200 µM.
`COc1ccc(CNc2cnc3ccc(N)cc3n2)cc1`: the EC50 is over 129 µM and the IC50 is 77.6 µM.
`CCOC(=O)CN1C(=O)c2ccc(NC(=O)C(=O)O)cc2S1(=O)=O`: the EC50 is over 200 µM and the IC50 was over 200 µM.
In the case of `C=CCC1C(=O)CC2(C)CC(=O)C(CC=C)C12C` (stereo not drawn), the outcome was inactive.
Turning to `CC(=O)N1C(Nc2cccc3nc(C)ccc23)CCN1c1ccccc1` (stereo not drawn), the EC50 is over 200 µM and the IC50 was 14.8 µM.
Take `O=c1[nH]cnc2[nH]ncc12`: the EC50 is over 200 µM and the IC50 is over 200 µM.
For the compound `CC[C@@H]1NC(=O)[C@H]([C@H](O)C(C)C)N(C)C(=O)[C@H](C(C)C)N(C)C(=O)[C@H](CC(C)C)N(C)C(=O)[C@H](CC(C)C)N(C)C(=O)[C@@H](C)NC(=O)[C@H](CCCCNC(=O)COc2ccc(Sc3c(O)cc(-c4ccccc4)oc3=O)c(C(C)(C)C)c2)NC(=O)[C@H](CC(C)C)N(C)C(=O)[C@H](C(C)C)NC(=O)[C@H](CC(C)C)N(C)C(=O)[C@@H](CO)N(C)C1=O` (cyclo([Abu][dNMeS][NMeL]V[NMeL]K(X4)[dA][NMeL][NMeL][NMeV][NMeLeu(3R-OH)])), the EC50 is over 67.6 µM and the IC50 is 4.57 µM.
As to `COc1ccc(-c2ccccc2)cc1SSc1cc(-c2ccccc2)ccc1OC`, the EC50 was over 200 µM and the 50% inhibitory concentration (IC50) came to 178 µM.
In turn, `CC1(C)CC(=O)C2C(C1)OC1CC(C)(C)CC(=O)C1C2c1ccc2c(c1)OCO2` (stereo not drawn) came in with an EC50 of over 200 µM and an IC50 of 155 µM.
Turning to `CCOC(=O)SC1=NC(C)=CC(C)(C)S1`, the EC50 was 53.7 µM and the IC50 was 145 µM.
Turning to `CC(=O)c1cn(-c2ccc(Cl)cc2)c(=O)c2c(N)n[nH]c12`, the concentration giving a half-maximal response (EC50) is 166 µM and the IC50 was over 200 µM.
On the same counts, the results for `S=C(NCc1ccccn1)N/N=C/c1ccccn1` are over 0.2 µM and 0.00794 µM.
Take `C/C=C/CC1(C(C)C)C(=O)NC(=S)NC1=O`: the EC50 is over 200 µM and the IC50 is over 200 µM.
On to `CCOc1ccc2nc(NC(=O)C(=O)C(c3cnc4ccccc4n3)[N+](=O)[O-])sc2c1` (stereo not drawn), for which the EC50 is over 155 µM and the IC50 is over 155 µM.
As for `CN(C1=NCCO1)c1cccc2c1CCCC2`, the EC50 is over 200 µM and the IC50 worked out at 4.47 µM.
